Reference: patent publication US11207310B2 (PRILENIA NEUROTHERAPEUTICS LTD., priority 2016, dated 2021)
Read-outs that look alike come from different tables or passages of the source.

Experiments:
[1] = test system: patients with HD
Method: The PBA-s is a brief semi-structured interview covering the most common behavioral and psychiatric manifestations of HD. […] Severity and frequency scores are multiplied to produce an overall ‘PBA score’ for each symptom.
The PBA-s is a brief semi-structured interview covering the most common behavioral and psychiatric manifestations of HD.
The total PBA score is calculated by the sum of all PBA-s scores across symptoms/domains.

[2] = test system: patients with HD; remark: listed apart in the source
Method: The CAB may be used to detect symptomatic, “pro-cognitive” effects (6 months-1 year) and slowing rate of cognitive decline (>1 year). […] The CAB covers domains most impacted in HD, using tests with good psychometric properties. The following six sections describe the tests that are part of the CAB brief. • 1. Symbol Digit Modalities Test
Psychomotor function is assessed in a Paced Tapping test (also known as PTAP). Participants tap on left and right mouse buttons, alternating between thumbs, at 3.0 Hz. They first listen to a tone presented at the desired tapping rate, and then begin tapping to the tone. After 11 taps with the tone, the repetition of the tone is discontinued, and participants attempt to continue tapping at the same rate until the end of the trial (31 taps later). • 6. One Touch Stockings of Cambridge (OTS)

[3] = test system: patients with HD; conditions: for TFC Domestic Chores, Δ to placebo: 52 weeks, Early Stage HD (TFC≥7)
Text: The TFC scale of the UHDRS is a standardized scale used to assess 5 functional domains associated with disability shown below (occupation, finances, domestic chores (e.g. laundry, washing dishes), activities of daily living, and care level). The TFC score has a range of 0-13 and is a well-established endpoint for trials aiming disease progression. […] The TFC score is accepted by regulators and often considered the most widely accepted tool for disease procession in HD patients. Additionally, TFC is considered the gold standard for measuring HD rate of functional decline. […] The floor and ceiling effects make TFC scores more sensitive to change in early stage HD than in late stage HD.
Domestic Chores: 0=unable, 1=impaired, 2=normal.

[4] = test system: patients with HD; conditions: 45 mg bid; Week 26; ALL
Method: The independence scale of the UHDRS is a rating scale where the patient's degree of independence was given in percentage, from 10% (tube fed, total bed care) to 100% (no special care needed). […] Patients with a UHDRS-IS score >90% at the screening visit were not eligible for the study.
It is a rating scale where the patient's degree of independence is given in percentage, from 10% (tube fed, total bed care) to 100% (no special care needed). […] The scale was assessed at screening, baseline, weeks 4, 12, 20, 26/Early Termination, 28 and 52/Early Termination.

## CCCN1CCC(c2cccc(S(C)(=O)=O)c2)CC1 [pridopidine, 4-[3-(methylsulfonyl)phenyl]-1-propyl-piperidine]
[1]; 45 mg bid, Week 26, ALL, p value 0.1235
  PBA Lack of Initiative (Apathy), Severity×Frequency, change from baseline, Δ to placebo: −0.87
[1]; 45 mg bid, Week 26, Stage 1 BL TFC 11-13, p value 0.0703
  PBA Lack of Initiative (Apathy), Severity×Frequency, change from baseline, Δ to placebo: −1.85
[1]; 45 mg bid, early HD patients, week 52
  Problems Behavioral Assessment apathy sub-score compared with placebo: improved
[1]; 67.5 mg bid (printed head, heads shifted), Week 52, BL TFC>7, p value 0.0608
  PBA Lack of Initiative (Apathy), Severity×Frequency, change from baseline, Δ to placebo: −1.39
[1]; 67.5 mg bid (printed head, heads shifted), Week 52, Full analysis set, p value 0.0704
  PBA Lack of Initiative (Apathy), Severity×Frequency, change from baseline, Δ to placebo: −1.27
[1]; 67.5 mg bid, Week 26, ALL, p value 0.3437
  PBA Lack of Initiative (Apathy), Severity×Frequency, change from baseline, Δ to placebo: −0.53
[1]; 67.5 mg bid, Week 26, Stage 1 BL TFC 11-13, p value 0.1267
  PBA Lack of Initiative (Apathy), Severity×Frequency, change from baseline, Δ to placebo: −1.51
[1]; 90 mg bid (printed head, heads shifted), Week 52, BL TFC>7, p value 0.703
  PBA Lack of Initiative (Apathy), Severity×Frequency, change from baseline, Δ to placebo: −0.29
[1]; 90 mg bid (printed head, heads shifted), Week 52, Full analysis set, p value 0.7052
  PBA Lack of Initiative (Apathy), Severity×Frequency, change from baseline, Δ to placebo: 0.26
[1]; 90 mg bid, Week 26, ALL, p value 0.7198
  PBA Lack of Initiative (Apathy), Severity×Frequency, change from baseline, Δ to placebo: −0.2
[1]; 90 mg bid, Week 26, Stage 1 BL TFC 11-13, p value 0.1822
  PBA Lack of Initiative (Apathy), Severity×Frequency, change from baseline, Δ to placebo: −1.46
[1]; 112.5 mg bid (printed head, heads shifted), Week 52, BL TFC>7, p value 0.9734
  PBA Lack of Initiative (Apathy), Severity×Frequency, change from baseline, Δ to placebo: −0.02
[1]; 112.5 mg bid (printed head, heads shifted), Week 52, Full analysis set, p value 0.8599
  PBA Lack of Initiative (Apathy), Severity×Frequency, change from baseline, Δ to placebo: −0.12
[1]; 112.5 mg bid, Week 26, ALL, p value 0.6445
  PBA Lack of Initiative (Apathy), Severity×Frequency, change from baseline, Δ to placebo: −0.26
[1]; 112.5 mg bid, Week 26, Stage 1 BL TFC 11-13, p value 0.0089
  PBA Lack of Initiative (Apathy), Severity×Frequency, change from baseline, Δ to placebo: −2.62
[1]; Placebo (printed head, heads shifted), Week 52, BL TFC>7, p value 0.7346
  PBA Lack of Initiative (Apathy), Severity×Frequency, change from baseline, Δ to placebo: 0.26
[1]; Placebo (printed head, heads shifted), Week 52, Full analysis set, p value 0.9523
  PBA Lack of Initiative (Apathy), Severity×Frequency, change from baseline, Δ to placebo: −0.04
[2]; 45 mg bid, full analysis set, week 52
  Paced Tapping at 3 Hz, change from baseline: Positive findings indicating potential improvement from baseline
[2]; 45 mg bid, week 26
  Δ to placebo: CAB Paced Tapping at 3 Hz, change from baseline: 0.4736
[2]; 45 mg bid, week 52
  Δ to placebo: CAB Paced Tapping at 3 Hz, change from baseline: 1.3234
[2]; 67.5 mg bid, week 26
  Δ to placebo: CAB Paced Tapping at 3 Hz, change from baseline: −0.041
[2]; 67.5 mg bid, week 52
  Δ to placebo: CAB Paced Tapping at 3 Hz, change from baseline: 0.3701
[2]; 90 mg bid, week 26
  Δ to placebo: CAB Paced Tapping at 3 Hz, change from baseline: 0.1975
[2]; 90 mg bid, week 52
  Δ to placebo: CAB Paced Tapping at 3 Hz, change from baseline: 0.2659
[2]; 112.5 mg bid, week 26
  Δ to placebo: CAB Paced Tapping at 3 Hz, change from baseline: 0.9515
[2]; 112.5 mg bid, week 52
  Δ to placebo: CAB Paced Tapping at 3 Hz, change from baseline: 0.1523
[3]; 45 mg bid
  TFC Domestic Chores, Δ to placebo: 0.24
[3]; 45 mg bid, Week 26, ALL
  Change from baseline in UHDRS TFC Domestic Chores, Δ to Placebo: −0.01
[3]; 45 mg bid, Week 26, Stage 1 BL TFC 11-13
  Change from baseline in UHDRS TFC Domestic Chores, Δ to Placebo: 0.34
[3]; 45 mg bid, Week 52, ALL
  Change from baseline in UHDRS TFC Domestic Chores, Δ to Placebo: 0.23
[3]; 45 mg bid, Week 52, Stage 1 BL TFC 11-13
  Change from baseline in UHDRS TFC Domestic Chores, Δ to Placebo: 0.49
[3]; 67.5 mg bid
  TFC Domestic Chores, Δ to placebo: 0.09
[3]; 67.5 mg bid, Week 26, ALL
  Change from baseline in UHDRS TFC Domestic Chores, Δ to Placebo: 0.02
[3]; 67.5 mg bid, Week 26, Stage 1 BL TFC 11-13
  Change from baseline in UHDRS TFC Domestic Chores, Δ to Placebo: 0.21
[3]; 67.5 mg bid, Week 52, ALL
  Change from baseline in UHDRS TFC Domestic Chores, Δ to Placebo: −0.03
[3]; 67.5 mg bid, Week 52, Stage 1 BL TFC 11-13
  Change from baseline in UHDRS TFC Domestic Chores, Δ to Placebo: 0.05
[3]; 90 mg bid
  TFC Domestic Chores, Δ to placebo: 0.16
[3]; 90 mg bid, Week 26, ALL
  Change from baseline in UHDRS TFC Domestic Chores, Δ to Placebo: 0
[3]; 90 mg bid, Week 26, Stage 1 BL TFC 11-13
  Change from baseline in UHDRS TFC Domestic Chores, Δ to Placebo: 0.34
[3]; 90 mg bid, Week 52, ALL
  Change from baseline in UHDRS TFC Domestic Chores, Δ to Placebo: 0.05
[3]; 90 mg bid, Week 52, Stage 1 BL TFC 11-13
  Change from baseline in UHDRS TFC Domestic Chores, Δ to Placebo: 0.1
[3]; 112.5 mg bid
  TFC Domestic Chores, Δ to placebo: 0.04
[3]; 112.5 mg bid, Week 26, ALL
  Change from baseline in UHDRS TFC Domestic Chores, Δ to Placebo: 0.06
[3]; 112.5 mg bid, Week 26, Stage 1 BL TFC 11-13
  Change from baseline in UHDRS TFC Domestic Chores, Δ to Placebo: 0.47
[3]; 112.5 mg bid, Week 52, ALL
  Change from baseline in UHDRS TFC Domestic Chores, Δ to Placebo: 0.04
[3]; 112.5 mg bid, Week 52, Stage 1 BL TFC 11-13
  Change from baseline in UHDRS TFC Domestic Chores, Δ to Placebo: 0.23
[4]
  Change from baseline in UHDRS Independence Scale, Δ to placebo: 1.79
